PubChem BioAssay AID2060504 (Molecular Pharmacology Branch, DTP, NCI, 2025)

Test system: 636577-100-R-J1-PDC complex spheroid viability
Experiment: Anticancer human tumor 636577-100-R-J1-PDC patient-derived endometrial adenocarcinoma cell line growth inhibition [GQUAD]
Settings: for IC50: curve of first compound; for viability, T/C: stronger effect = lower value
Outline: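 Viability of tumor cells grown as complex spheroids with endothelial and stromal cells, exposed to drug combinations. Top concentration at or near clinical Cmax (else 10 microM), diluted in half-log increments.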

[1] = second compound 0.0316 µM, first compound 0.0316 µM
[2] = second compound 0.0316 µM, first compound 0.1 µM
[3] = second compound 0.0316 µM, first compound 0.316 µM
[4] = second compound 0.0316 µM, first compound 1 µM
[5] = second compound 0.0316 µM, first compound 3.16 µM
[6] = second compound 0.0316 µM, first compound 10 µM
[7] = second compound 0.1 µM, first compound 0.0316 µM
[8] = second compound 0.1 µM, first compound 0.1 µM
[9] = second compound 0.1 µM, first compound 0.316 µM
[10] = second compound 0.1 µM, first compound 1 µM
[11] = second compound 0.1 µM, first compound 3.16 µM
[12] = second compound 0.1 µM, first compound 10 µM
[13] = second compound 0.316 µM, first compound 0.0316 µM
[14] = second compound 0.316 µM, first compound 0.1 µM
[15] = second compound 0.316 µM, first compound 0.316 µM
[16] = second compound 0.316 µM, first compound 1 µM
[17] = second compound 0.316 µM, first compound 3.16 µM
[18] = second compound 0.316 µM, first compound 10 µM
[19] = second compound 1 µM, first compound 0.0316 µM
[20] = second compound 1 µM, first compound 0.1 µM
[21] = second compound 1 µM, first compound 0.316 µM
[22] = second compound 1 µM, first compound 1 µM
[23] = second compound 1 µM, first compound 3.16 µM
[24] = second compound 1 µM, first compound 10 µM
[25] = second compound 3.16 µM, first compound 0.0316 µM
[26] = second compound 3.16 µM, first compound 0.1 µM
[27] = second compound 3.16 µM, first compound 0.316 µM
[28] = second compound 3.16 µM, first compound 1 µM
[29] = second compound 3.16 µM, first compound 3.16 µM
[30] = second compound 3.16 µM, first compound 10 µM
[31] = second compound 10 µM, first compound 0.0316 µM
[32] = second compound 10 µM, first compound 0.1 µM
[33] = second compound 10 µM, first compound 0.316 µM
[34] = second compound 10 µM, first compound 1 µM
[35] = second compound 10 µM, first compound 3.16 µM
[36] = second compound 10 µM, first compound 10 µM
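Also: viability read after seven days of drug exposure.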
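For viability, T/C in this document: luminescence signal used as a proxy for viable cells; 100% = DMSO vehicle control wells.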

CC1COCCN1c1cc(-c2ccnn2C)c2ccnc(-c3ccn[nH]3)c2n1 (centres undefined) + Cc1[nH]c2ccc(F)cc2c1-c1nc2c3cccnc3c3ncccc3c2[nH]1
IC50 (second compound 0.0316 µM): 96.7 nM | IC50 (second compound 0.1 µM): 84.9 nM | IC50 (second compound 0.316 µM): 105 nM | IC50 (second compound 1 µM): < 31.6 nM | IC50 (second compound 3.16 µM): < 31.6 nM | IC50 (second compound 10 µM): < 31.6 nM | viability, T/C [1]: 89.7% | viability, T/C [2]: 48.1% | viability, T/C [3]: 26.9% | viability, T/C [4]: 10.8% | viability, T/C [5]: 7.12% | viability, T/C [6]: 4.03% | viability, T/C [7]: 59.4% | viability, T/C [8]: 49.1% | viability, T/C [9]: 23.9% | viability, T/C [10]: 11.4% | viability, T/C [11]: 8.62% | viability, T/C [12]: 4.31% | viability, T/C [13]: 59.4% | viability, T/C [14]: 52.9% | viability, T/C [15]: 25.8% | viability, T/C [16]: 14.5% | viability, T/C [17]: 8.77% | viability, T/C [18]: 4.31% | viability, T/C [19]: 39% | viability, T/C [20]: 32.5% | viability, T/C [21]: 23% | viability, T/C [22]: 15% | viability, T/C [23]: 8.69% | viability, T/C [24]: 3.56% | viability, T/C [25]: 16.9% | viability, T/C [26]: 18.7% | viability, T/C [27]: 15.5% | viability, T/C [28]: 9.23% | viability, T/C [29]: 6.94% | viability, T/C [30]: 3.78% | viability, T/C [31]: 41.6% | viability, T/C [32]: 24.7% | viability, T/C [33]: 20.6% | viability, T/C [34]: 13.2% | viability, T/C [35]: 8.7% | viability, T/C [36]: 4.88%

CC1COCCN1c1cc(C2(O)CC3CCC(C2)O3)c2cnn(-c3ccn[nH]3)c2n1 (centres undefined) + Cc1[nH]c2ccc(F)cc2c1-c1nc2c3cccnc3c3ncccc3c2[nH]1
IC50 (second compound 0.0316 µM): 70.6 nM | IC50 (second compound 0.1 µM): 63.3 nM | IC50 (second compound 0.316 µM): 59.2 nM | IC50 (second compound 1 µM): < 31.6 nM | IC50 (second compound 3.16 µM): < 31.6 nM | IC50 (second compound 10 µM): < 31.6 nM | viability, T/C [1]: 82.9% | viability, T/C [2]: 33.8% | viability, T/C [3]: 18.5% | viability, T/C [4]: 7.11% | viability, T/C [5]: 3.67% | viability, T/C [6]: 1.06% | viability, T/C [7]: 71.2% | viability, T/C [8]: 35.3% | viability, T/C [9]: 18.7% | viability, T/C [10]: 8.6% | viability, T/C [11]: 3.75% | viability, T/C [12]: 1.19% | viability, T/C [13]: 67.1% | viability, T/C [14]: 36.1% | viability, T/C [15]: 15.7% | viability, T/C [16]: 8.55% | viability, T/C [17]: 4.01% | viability, T/C [18]: 1.3% | viability, T/C [19]: 32% | viability, T/C [20]: 26% | viability, T/C [21]: 14.9% | viability, T/C [22]: 8.44% | viability, T/C [23]: 3.77% | viability, T/C [24]: 1.61% | viability, T/C [25]: 17.9% | viability, T/C [26]: 14.8% | viability, T/C [27]: 10.7% | viability, T/C [28]: 7.29% | viability, T/C [29]: 3.77% | viability, T/C [30]: 1.49% | viability, T/C [31]: 24.6% | viability, T/C [32]: 21.4% | viability, T/C [33]: 15.2% | viability, T/C [34]: 8.61% | viability, T/C [35]: 4.18% | viability, T/C [36]: 1.5%
